Earlier results, collected in patent publication EP1232240B1, “DETERGENT COMPOSITIONS” (UNILEVER N.V., priority 1999, dated 2001).

Conditions: grams of solid to form a saturated solution in 100 grams of water at 20°C

- Water Solubility (g/100g): >100 g/100g
Structure (SMILES): NC(N)=O [Urea]
